According to patent US7534762B2, “Polypeptides having antimicrobial activity and polynucleotides encoding same” (Novozymes A/S, priority 2005, dated 2009):

Columns and labels:
Assay in all cases: Radial diffusion assay
Format in all cases: cell-based
[1] = test system: Streptococcus hyointestinalis (ATCC 49169); settings: 10 units = 1 mm diameter clear zone around the 3 mm sample well
Method: (§1) The supernatants described above in Example 4 were analyzed in a radial diffusion assay following a previously published protocol for detection of antimicrobial activity (Lehrer et al., (1991) Ultra sensitive assays for endogenous antimicrobial polypeptides J Immunol Methods 137: 167-173). Target bacteria (10^6 colony forming units (CFU)) were added to 10 ml of underlay agarose (1% low electro-endosmosis agarose, 0.03% Trypticase soy broth, 10 mM sodium phosphate, pH 7.4, 37 degrees Celsius). Suspension was solidified on an INTEGRID Petri Dish (Becton Dickinson Labware, NJ). A 3 mm Gel Puncher was used to make holes in the underlay agarose (Amersham Pharmacia Biotech, Sweden). Samples were added to the holes and incubated at 37 degrees Celsius, 3 hours. An overlay was poured on top and the plate was incubated overnight (LB media, 7.5% Agar). Antimicrobial activity was seen as bacterial clearing zones around the wells. Living cells was counterstained by adding 10 ml, 0.2 mM MTT (3-(4,5-Dimethylthiazol-2-yl)-2,5-diphenyltetrazolium bromide Thiazolyl blue). All standard protocols have been described elsewhere (Sambrook, Fritsch, and Maniatis, 1989). An electronic picture is taken. The bacterial growth inhibition is seen as clearing zones, which are measured to the nearest 0.1 mm and subtracted the diameter of the hole. The results are shown as zones of inhibition of native samples (Table 3) and concentrated samples (Table 4) against a range of test strains: • A: Staphylococcus simulans (ATCC 11631) • B: Staphylococcus carnosus (ATCC 51365) • C: Streptococcus hyointestinalis (ATCC 49169) • D: Bacillus subtilis (ATCC 23857) • E: Enterococcus saccharolyticus (ATCC 43076) • F: Escherichia coli (ATCC 10536) • G: Acinetobacter anitratus (ATCC 17903) • H: Erwinia chrysanthemi (ATCC 11663) • J: Pseudomonas boreopolis (ATCC 15452)
(§2) Concentration of samples was performed by precipitation of 45 ml culture supernatant with 2.5 ml 100% TCA and resuspension of the pelleted precipitate in 450 μl resuspension buffer (100 mM Tris pH 8, 100 mM NaCl).

[2] = test system: Bacillus subtilis (ATCC 23857); settings: 10 units = 1 mm diameter clear zone around the 3 mm sample well
Method: as §1, §2

[3] = test system: Pseudomonas boreopolis (ATCC 15452); settings: TCA precipitated culture supernatant, 100 x concentrated; 10 units = 1 mm diameter clear zone around the 3 mm sample well
Method: as §1, §2

[4] = test system: Escherichia coli (ATCC 10536); settings: TCA precipitated culture supernatant, 100 x concentrated; 10 units = 1 mm diameter clear zone around the 3 mm sample well
Method: as §1, §2

[5] = test system: Erwinia chrysanthemi (ATCC 11663); settings: TCA precipitated culture supernatant, 100 x concentrated; 10 units = 1 mm diameter clear zone around the 3 mm sample well
Method: as §1, §2

[6] = test system: Enterococcus saccharolyticus (ATCC 43076); settings: 10 units = 1 mm diameter clear zone around the 3 mm sample well
Method: as §1, §2

[7] = test system: Staphylococcus carnosus (ATCC 51365); settings: 10 units = 1 mm diameter clear zone around the 3 mm sample well
Method: as §1, §2

[8] = test system: Acinetobacter anitratus (ATCC 17903); settings: TCA precipitated culture supernatant, 100 x concentrated; 10 units = 1 mm diameter clear zone around the 3 mm sample well
Method: as §1, §2

[9] = test system: Staphylococcus simulans (ATCC 11631); settings: TCA precipitated culture supernatant, 100 x concentrated; 10 units = 1 mm diameter clear zone around the 3 mm sample well
Method: as §1, §2

[10] = TCA precipitated culture supernatant, 100 x concentrated
[11] = native culture supernatant of recombinant A. oryzae clone

Substance | zone of inhibition, test strain C [1, 10] [units] | zone of inhibition, test strain C [1, 11] [units] | zone of inhibition, test strain D [2, 10] [units] | zone of inhibition, test strain D [2, 11] [units] | zone of inhibition, test strain J [3] [units] | zone of inhibition, test strain F [4] [units] | zone of inhibition, test strain H [5] [units] | zone of inhibition, test strain E [6, 10] [units] | zone of inhibition, test strain E [6, 11] [units] | zone of inhibition, test strain B [7, 10] [units] | zone of inhibition, test strain B [7, 11] [units] | zone of inhibition, test strain G [8] [units] | zone of inhibition, test strain A [9] [units]
Marinasin 1B: Arenicola marina antimicrobial polypeptide, amino acids 1 to 49 of SEQ ID NO: 8, expressed in Aspergillus oryzae (MKFFLPIMIALAFAAVAMATADTEPVEPEEELSIMLPFVEDDLLEKPIP; listed as Arenicola marina) | 22 | 10 | 28 | 10 | 28 | 25 | 25 | 30 | 9 | 25 | 21 | 26 | 22
Marinasin 2A: Arenicola marina antimicrobial polypeptide, amino acids 1 to 46 of SEQ ID NO: 12, expressed in Aspergillus oryzae (MNQITLLMLLVAVAVMATVTGQSLDDESDVENVSQPEQRGWCWQWT; listed as Arenicola marina) | 35 | 12 | 38 | 16 | 39 | 25 | 40 | 41 | 14 | 35 | 26 | 39 | 34
Marinasin 4: Arenicola marina antimicrobial polypeptide, amino acids 1 to 45 of SEQ ID NO: 22, expressed in Aspergillus oryzae (MKPIILLMLLVAVVVMATVTAEPLDEESDVEIVSQPEQRIPCWTP; listed as Arenicola marina) | 59 | 54 | 32 | 32 | 0 | 0 | 0 | 68 | 43 | 81 | 60 | 6 | 14
Marinasin 5: Arenicola marina antimicrobial polypeptide, amino acids 1 to 49 of SEQ ID NO: 24, expressed in Aspergillus oryzae (MKFLLPLMVVMAFAAVAMATADTEPVEREEGVFIMLPFVEDDMLEKPIL; listed as Arenicola marina) | 24 |  | 25 |  | 22 | 19 | 26 | 23 |  | 13 |  | 26 | 22
Marinasin 6: Arenicola marina antimicrobial polypeptide, amino acids 1 to 44 of SEQ ID NO: 26, expressed in Aspergillus oryzae (MTTLLLMFGVAIVVLATVAAVPLQDDDVLDPSGLVEGETRGRSC; listed as Arenicola marina) |  | 45 |  | 39 |  |  |  |  | 40 |  |  |  | 
